Data from the METLIN SMRT retention time set (Domingo-Almenara et al. 2019).

Assay: gradient 5% acetonitrile 3 min, to 50% in 2 min, to 85% in 15 min, held 3 min, 100 µL/min
Settings: column: Zorbax Extend-C18 2.1 x 50 mm; eluents: water / acetonitrile, 0.1% formic acid
How it was run: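 The system's dead and dwell volumes were 40 μL and 900 μL, with a Zorbax Extend-C18 column (2.1 × 50 mm, 1.8 μm) run at 100 μL/min in water and acetonitrile containing 0.1% formic acid each. Pure standards were analyzed in mixtures of ~100 molecules by HPLC–quadrupole time-of-flight mass spectrometry in positive and negative ionization mode. Retention time was assigned from computationally picked, manually inspected adduct peaks.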

Row | SMILES | RP-LC retention time [s]
1 | CCn1ccc2cc(S(=O)(=O)N3CCC(C(=O)NCCCN4CCCC(C)C4)CC3)ccc21 (centres undefined) | 676
2 | CCOc1ccc(CNC(=O)C2CCN(S(=O)(=O)c3ccc4c(c3)CCCC(=O)N4)CC2)cc1 | 756
3 | CCc1ccccc1NC(=O)Cn1c(=O)nc(N2CCC(C)CC2)c2ccccc21 | 898
4 | CCCN(C)c1nccn2c(=O)n(CC(=O)Nc3cccc(C)c3C)nc12 | 684
5 | Cc1cccc(NS(=O)(=O)c2cc3n(c2)CCN(CC(C)C)C3=O)c1C | 852
6 | O=C(NCc1cccnc1)C1CCCN(C(=O)c2cc3ccsc3n2Cc2cccc(Cl)c2)C1 (centres undefined) | 711
7 | COc1ccc(S(=O)(=O)N2CCCC(C(=O)NCCc3ccc(OC)c(OC)c3)C2)cc1C (centres undefined) | 870
8 | CCOC(=O)c1nc(N(Cc2ccccc2)C(C)C)c2ccccc2n1 | 1000
9 | COc1ccc(CNC(=O)c2[nH]c3cc(C)sc3c2CN(C)C)cc1 | 664
10 | CCOC(=O)c1noc2ncnc(NCc3ccccc3Cl)c12 | 965
11 | Cc1ccc(Cl)cc1N1CCN(C(=O)CN2C(=O)C3C4C=CC(C4)C3C2=O)CC1 (centres undefined) | 977
12 | COc1ccc(-c2noc(C3(NC(=O)c4ccc(OC)c(F)c4)CCCCC3)n2)cc1 | 1140
13 | Fc1ccc(-c2noc(Cc3nnc(-c4cccc(Br)c4)o3)n2)cc1 | 1120
14 | Cc1nn(-c2ccccc2)c(C)c1S(=O)(=O)N1CCC(C(=O)NC(C)(C)C)CC1 | 894
15 | COc1cc(N2CCN(S(=O)(=O)c3cccc(C(F)(F)F)c3)CC2)nc(OC)n1 | 947
16 | CN1C2CCC1CC(OC(c1ccccc1)c1ccccc1N)C2 (centres undefined) | 752
17 | COc1ccc(-c2nnc(Cc3nc(-c4ccccc4C)no3)o2)cc1 | 1010
18 | C=CCNC(=O)c1cn(CCC)nc1S(=O)(=O)N1CCN(c2ccccc2OCC)CC1 | 1030
19 | Cc1ccc(-c2nc(Cn3cccc3C(=O)NCc3cccs3)no2)cc1 | 1040
20 | CC(C)(C)c1ccc(C(=O)NC2(c3nc(-c4ccncc4)no3)CCCCC2)cc1 | 1190
21 | O=C(NCc1ccco1)c1c(O)c2cccnc2n(-c2ccc(F)cc2)c1=O | 1280
22 | CS(=O)(=O)N1CCC(C(=O)Nc2cccc(Cl)c2)Oc2ccccc21 (centres undefined) | 954
23 | CCOc1ccccc1-c1noc(-c2nnn3c2COC(c2ccc(C)cc2C)C3)n1 (centres undefined) | 1290

Row | SMILES | RP-LC retention time [s]
24 | O=C(NCCSc1ncc(-c2ccc(F)cc2)[nH]1)c1ccc(Br)o1 | 596
25 | CCS(=O)(=O)c1ccc(-c2ccc(NS(C)(=O)=O)cc2)nn1 | 643
26 | O=C(c1ccc(Br)o1)N1CCC(c2cnn(-c3ccccc3)c2)CC1 | 957
27 | O=C(NCc1ccc(N2CCOCC2)cc1)c1cn2c(n1)COCC2 | 597
28 | O=C(Nc1cccc(-c2cn3cccnc3n2)c1)c1ccccc1F | 664
29 | CC(C)C(=O)NC(Cc1ccccc1)c1nnc(N2CCSCC2)o1 (centres undefined) | 738
30 | COc1ccc2c(c1)c(CN1CCC(C(=O)NCc3ccccc3Cl)CC1)cn2C | 699
31 | CC(=O)Nc1nsc(N2CCC(C(=O)NCc3ccc(F)cc3)CC2)n1 | 649
32 | CC(C)NC(=O)N1CCCC(c2cccc(C(=O)NCc3ccc(OC(C)C)cc3)c2)C1 (centres undefined) | 939
33 | Cc1ccc(-c2nc(C3CCN(S(=O)(=O)c4ccc(C)c(C)c4)CC3)no2)cc1 | 1320
34 | Nc1cc(C2CCN(C(=O)c3ccc(Cl)cc3)CC2)no1 | 705
35 | CCc1cccc(NC(=O)C2CCN(S(=O)(=O)c3cc(-c4noc(C5CC5)n4)cs3)CC2)c1 | 1110
36 | O=C(CSc1nncc2ccccc12)NCCc1ccccc1 | 687
37 | CCS(=O)(=O)Nc1cccc(C2=NN(S(=O)(=O)CC)C(c3ccco3)C2)c1 (centres undefined) | 753
38 | O=C(Cn1c(=O)oc2ccccc21)NCC1CCN(C(=O)c2cc3ccccc3o2)CC1 | 738
39 | CCn1nccc1-c1cccc(-c2noc(-c3ccc(OC)cc3)n2)c1 | 1210
40 | CC(C)n1cc(S(=O)(=O)NCc2cccc(F)c2)c2cccnc21 | 926
41 | O=C1CCCc2nc(N3CCN(c4ccccc4F)CC3)ncc21 | 1060
42 | O=C(CCNc1c(-c2ccc(F)cc2)nc2cnccn12)N1CCCCC1 | 730
43 | CS(=O)(=O)N1CCCc2cc(C(=O)N3CCOCC3)ccc21 | 654
44 | O=C(NCc1cccs1)C1CCN(S(=O)(=O)c2cc(-c3noc(C4CCC4)n3)cs2)CC1 | 1000
45 | Cc1ncoc1C(=O)N1CCOc2ccc(NC(=O)C3CC3)cc2C1 | 659
46 | COc1ccc(-c2noc(-c3ccc(N4CCC(N5CCCCC5)CC4)nc3)n2)cc1 | 738

Row | SMILES | RP-LC retention time [s]
47 | CCOc1cc(=O)n2c(c1C(=O)OCc1ccc(Cl)cc1)CCCC2 | 970
48 | CCOc1cc(C(=O)Nc2c(-c3ccc(OC)cc3)nc3cc(C)ccn23)cc(OCC)c1OCC | 803
49 | CN1c2cc(C(=O)NCc3ccccc3Br)ccc2C(=O)N2CCCCC21 (centres undefined) | 860
50 | O=C(CN1CCN(Cc2ccc(F)cc2)C(=O)C1=O)N1CCN(c2cccc(Cl)c2)CC1 | 829
51 | COc1ccc(CNC(=O)c2cn3cccc(C)c3n2)cc1 | 695
52 | CCNc1cc(N2CCC(CCC(=O)NCCN3CCc4ccccc4C3)CC2)ncn1 | 572
53 | CS(=O)(=O)N1CC[C@H]2CN(C(=O)c3ccc4ncccc4c3)C[C@@]2(CF)C1 | 607
54 | Cc1oc(C2CCN(S(=O)(=O)c3cccc(F)c3)CC2)nc1C(=O)N1CCCC1 | 913
55 | Cc1cc2cc(CN3C(=O)c4ccccc4C3=O)ccc2[nH]1 | 866
56 | O=C(CC1c2ncccc2C(=O)N1Cc1ccc(F)cc1)NCc1cc(F)ccc1F (centres undefined) | 735
57 | CCCC(=O)Nc1ccc2c(c1)CN(C(=O)c1cc(F)ccc1Cl)C(C(=O)N(C)C)C2 (centres undefined) | 726
58 | CCc1ccc(CNC(=O)CCCN2C(=O)CCn3nc(C)cc32)cc1 | 726
59 | COCCN1CC(CO)C2(CCN(Cc3cccc(Cl)c3)CC2)C1 (centres undefined) | 531
60 | CCOC(=O)C1=C(N)Oc2cc(C)n(CCN(C)C)c(=O)c2C1c1ccccc1F (centres undefined) | 648
61 | Cc1nc(-c2ccncc2)nc2c1CCC(=O)N2CC1COCCO1 (centres undefined) | 591
62 | COCc1nncn1C1CCN(S(=O)(=O)c2ccc(Cl)c(C)c2)CC1 | 765
63 | CCCOC(=O)C1=C(C)NC2=C(C(=O)C(C(=O)OC)C(C)C2)C1c1ccccc1F (centres undefined) | 954
64 | Cc1ccccc1C(=O)N1CCc2c(c(-c3nc(C4CC4)no3)nn2C)C1 | 801
65 | COc1ccc(NC(=O)C2CCc3nc(N4CCC(C)CC4)ncc3C2)c(C)c1 (centres undefined) | 747
66 | O=C(Cc1cccs1)NC1CCN(c2cc(-c3ccccc3)[nH]n2)C1 (centres undefined) | 673
67 | CC1(C)CC(=O)C2=C(C1)Nc1ccccc1N(C(=O)c1ccccc1)C2c1ccco1 (centres undefined) | 825
68 | CC(C)C(=O)N1CCCC1c1nc(CCOCC2CC2)no1 (centres undefined) | 733
69 | CCCC(C(=O)O)c1c(C)nc2ccc(Cl)cc2c1-c1ccccc1 (centres undefined) | 1010

Row | SMILES | RP-LC retention time [s]
70 | COc1ccc(-c2nnc(-c3cccnc3NCc3cc(OC)cc(OC)c3)o2)cc1 | 1160
71 | O=C(CS(=O)(=O)c1c[nH]c2ccccc12)Nc1ccc2c(c1)OCCO2 | 651
72 | CCCc1nc(NCc2cc(OC)ccc2OC)ncc1C(=O)O | 863
73 | COCCCN1C(=O)CSc2c(c3ccccc3n2C)C1C(=O)NCCCOC(C)C (centres undefined) | 825
74 | Cn1cc(SCC(=O)Nc2ccccc2C(F)(F)F)c2ccccc21 | 967
75 | CCCCNC(=O)Cn1c2ccccc2c2ncn(Cc3nc(-c4ccccc4)no3)c(=O)c21 | 910
76 | CCOC(=O)c1nc(Nc2ccc(F)c(Cl)c2)c2ccccc2n1 | 971
77 | COc1cccc(C(=O)Nc2ccc(CC(=O)NCC(F)(F)F)cc2)c1OC | 764
78 | O=C(NC1CCCCCC1)C1CCCN(c2nc3ccccc3n(Cc3ccccc3)c2=O)C1 (centres undefined) | 1290
79 | COC(=O)c1cnn(-c2ccc(C)cc2)c1N | 704
80 | Cc1ccc(C)c(NC(=O)c2c(O)c3cccnc3n(-c3ccc(F)cc3)c2=O)c1 | 1360
81 | CNC(=O)c1cnn(-c2ccc(-c3nc(C4CC4)no3)cn2)c1C | 746
82 | CCS(=O)(=O)N1CC(=O)N(c2cc(C)cc(C)c2)C(C)(C(=O)NCc2ccc(F)cc2)C1 (centres undefined) | 892
83 | CCc1ccc(NC(=O)C2CCCN(S(=O)(=O)c3c[nH]c(C(=O)N4CCCCCC4)c3)C2)cc1 (centres undefined) | 923
84 | CCCCN(CC)C(=O)Cn1c(=O)c2cnc(-c3ccccc3)nc2n(C)c1=O | 1070
85 | O=C(NCc1cccs1)C1CCCN(c2nnc3ccc(C(F)(F)F)cn23)C1 (centres undefined) | 668
86 | CC(=O)N1CCc2cc(N3CC(C(=O)NCCC(C)C)CC3=O)ccc21 (centres undefined) | 669
87 | COc1ccc(CCn2nnnc2C2(c3ccc(C)cc3)CC2)cc1 | 1150
88 | Cc1ccc(Nc2c(-c3cccc(Cl)c3)nc3cccc(C)n23)cc1 | 836
89 | CCOC(=O)C1CCC(CNC(=O)Nc2cc3c(cc2N2CCCC2)n(C)c(=O)n3C)CC1 (centres undefined) | 638
